# Reference: PubChem BioAssay (NCI)
#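 Where inhibition never reached the appropriate level, the endpoint shown equals the highest concentration tested. Otherwise, values were interpolated linearly from a five-concentration, 48-hour dose response in 96-well plates. GI50: concentration for 50% inhibition of growth. The concentration for full growth arrest is given as TGI.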
# Columns and labels:
# Assay in all cases: DTP human tumour cell line panel, 48 h
# HL-60(TB) leukemia = system: HL-60(TB) leukemia
# KM12 colon = system: KM12 colon
# OVCAR-4 ovarian = system: OVCAR-4 ovarian
# IGROV1 ovarian = system: IGROV1 ovarian
# K-562 leukemia = system: K-562 leukemia
# NCI-H23 lung = system: NCI-H23 lung
# SW-620 colon = system: SW-620 colon
# HCC-2998 colon = system: HCC-2998 colon
# SR leukemia = system: SR leukemia
# UACC-257 melanoma = system: UACC-257 melanoma
SMILES,TGI (HL-60(TB) leukemia),TGI (KM12 colon),TGI (OVCAR-4 ovarian),TGI (IGROV1 ovarian),TGI (K-562 leukemia),TGI (NCI-H23 lung),TGI (SW-620 colon),TGI (HCC-2998 colon),TGI (SR leukemia),TGI (UACC-257 melanoma),GI50 (UACC-257 melanoma),GI50 (HL-60(TB) leukemia),GI50 (KM12 colon),GI50 (OVCAR-4 ovarian),GI50 (IGROV1 ovarian),GI50 (K-562 leukemia),GI50 (SW-620 colon),GI50 (HCC-2998 colon),GI50 (SR leukemia)
CCN1C(=O)N2C(OC)c3ccccc3C(Br)C2(OC)C1=O (centres undefined),> 100 µM,> 100 µM,> 100 µM,> 100 µM,> 100 µM,> 100 µM,> 100 µM,> 100 µM,> 100 µM,–,–,–,–,–,–,–,–,–,–
N=C(N)c1ccc(N=Nc2c(O)ccc3cc(O)ccc23)cc1,> 100 µM,> 100 µM,> 100 µM,> 100 µM,> 100 µM,–,> 100 µM,> 100 µM,> 100 µM,> 100 µM,–,–,–,–,–,–,–,–,–
O=C(/C=C\c1ccc(/C=C/C(=O)Nc2cccc(C3=NCCCN3)c2)cc1)Nc1cccc(C2=NCCCN2)c1,> 100 µM,> 100 µM,> 100 µM,> 100 µM,> 100 µM,> 100 µM,> 100 µM,> 100 µM,–,> 100 µM,–,–,–,–,–,–,–,–,–
CC1=NN(C(=O)c2ccc(C)cc2)C(=O)C1N=Nc1ccccc1C(=O)O (centres undefined),> 100 µM,> 100 µM,> 100 µM,> 100 µM,> 100 µM,> 100 µM,> 100 µM,> 100 µM,–,> 100 µM,–,–,–,–,–,–,–,–,–
CC1CCN(c2cc(-c3cc4ccccc4o3)oc(=O)c2C#N)CC1,> 100 µM,> 100 µM,> 100 µM,> 100 µM,> 100 µM,> 100 µM,> 100 µM,> 100 µM,> 100 µM,> 100 µM,–,–,–,–,–,–,–,–,–
CCOC(=O)[C@H]1Nc2c(cccc2[N+](=O)[O-])C2c3ccccc3CC21 (some centres undefined),–,> 100 µM,> 100 µM,> 100 µM,> 100 µM,> 100 µM,> 100 µM,> 100 µM,> 100 µM,98.4 µM,–,–,–,–,–,–,–,–,–
Cc1ccc2oc3c(ccc(=O)n3C)c(=O)c2c1,> 100 µM,> 100 µM,> 100 µM,> 100 µM,> 100 µM,> 100 µM,> 100 µM,> 100 µM,> 100 µM,–,–,–,–,–,–,–,–,–,–
O=c1[nH]c(=S)[nH]c2c(C3OC(CO)C(O)C3O)nsc12 (centres undefined),> 100 µM,–,> 100 µM,> 100 µM,> 100 µM,–,> 100 µM,> 100 µM,–,> 100 µM,–,–,–,–,–,–,–,–,–
CCOc1cc(/C=C/C(=O)CC(=O)/C=C/c2ccc(OC(=O)CNCCN(CC)CC)c(OCC)c2)ccc1OC(=O)CNCCN(CC)CC,4.25 µM,2.97 µM,> 100 µM,3.83 µM,16.3 µM,–,3.41 µM,3.19 µM,1.63 µM,3.48 µM,1.32 µM,1.16 µM,1.4 µM,4.35 µM,1.97 µM,1.44 µM,1.29 µM,1.65 µM,0.313 µM
